Our source for the IC50 values is US20130158031A1 (SU ZHOU JING HONG BIOTECH CO., LTD., priority 2011, published 2013).

This test deals with T1, human PDE10A (Homo sapiens, UniProt Q9Y233).
T1 construct: Full-length human PDE10A cDNA is amplified using PCR; made in house; host or cells: HEK293 cells, transiently transfected with Lipofectamine 2000; supernatant of the sonicated lysate after 10,000 g
Briefly: PDE10A inhibition assay (IMAP fluorescence polarization). Format: biochemical. To be noted: hPDE10A enzyme from transfected HEK293 cell lysate, fluorescein-labeled cAMP/cGMP. The method, then: Full-length human PDE10A cDNA is amplified using PCR and cloned into pcDNA3.0 vector (Invitrogen). After verified by DNA sequencing, the plasmid is transfected into HEK293 cell using the Lipofectamine 2000 reagent (Invitrogen). Cells are subsequently harvested and sonicated in cell lysis buffer. After centrifuged at 10,000 g for 20 minutes, supernatant containing cytosolic hPDE10A enzyme is collected and stored at −80° C. PDE10A inhibition assay is performed using the IMAP fluorescence polarization assay (Molecular Devices) according to the manufacturer's protocols. A fixed amount of the hPDE10A enzyme is pretreated with the test compounds, following the addition of fluorescein-labeled cAMP/cGMP. After 1 hour incubation, the IMAP binding reagent is added and incubated for another hour. The fluorescence polarization is then quantified with a fluorescence polarization reader Envision from Perkin Elmer. IC50 values are calculated using the Prism program (GraphPad Software).

The structures appear in SMILES notation.

T1 sequence (Q9Y233 1-779 isoform Q9Y233-1): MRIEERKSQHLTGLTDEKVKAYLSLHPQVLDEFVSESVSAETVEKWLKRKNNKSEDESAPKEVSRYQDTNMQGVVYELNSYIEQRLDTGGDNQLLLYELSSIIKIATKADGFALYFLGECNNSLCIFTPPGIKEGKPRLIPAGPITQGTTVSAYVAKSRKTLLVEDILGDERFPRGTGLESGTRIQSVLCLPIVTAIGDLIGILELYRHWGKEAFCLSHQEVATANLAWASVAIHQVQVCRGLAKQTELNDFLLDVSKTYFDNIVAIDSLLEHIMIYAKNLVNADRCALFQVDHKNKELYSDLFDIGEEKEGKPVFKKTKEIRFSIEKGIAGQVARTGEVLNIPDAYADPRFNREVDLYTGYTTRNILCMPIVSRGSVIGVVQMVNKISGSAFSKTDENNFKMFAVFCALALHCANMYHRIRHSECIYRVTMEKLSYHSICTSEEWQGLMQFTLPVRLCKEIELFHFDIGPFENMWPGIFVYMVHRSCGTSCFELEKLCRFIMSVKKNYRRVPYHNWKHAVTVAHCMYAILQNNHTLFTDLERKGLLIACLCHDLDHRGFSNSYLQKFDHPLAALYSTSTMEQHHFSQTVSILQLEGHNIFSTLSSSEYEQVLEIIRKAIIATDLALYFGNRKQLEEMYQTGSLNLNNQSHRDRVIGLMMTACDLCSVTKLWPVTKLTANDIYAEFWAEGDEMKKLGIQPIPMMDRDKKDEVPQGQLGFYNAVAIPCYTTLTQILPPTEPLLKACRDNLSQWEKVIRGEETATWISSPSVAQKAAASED

Turning to `Cn1cc(-c2ccncc2)c(-c2ccc(C#Cc3ccc4ccccc4n3)cc2)n1` [Example 1, 2-((4-(1-methyl-4-(pyridin-4-yl)-1H-pyrazol-3-yl)phenyl)ethynyl)quinoline], the IC50 was ≤ 10 nM.
With `Cn1cc(-c2ccncc2)c(-c2ccc(C#Cc3ncc4ccccc4n3)cc2)n1` [Example 2, 2-((4-(1-methyl-4-(pyridin-4-yl)-1H-pyrazol-3-yl)phenyl)ethynyl)quinazoline], the 50% inhibitory concentration (IC50) was ≤ 10 nM.
In the case of `Cc1cccc(C#Cc2ccc(-c3nn(C)cc3-c3ccncc3)cc2)n1` [Example 3] it was ≤ 10 nM.
Regarding `CCc1cccc(C#Cc2ccc(-c3nn(C)cc3-c3ccncc3)cc2)n1` [Example 4, 2-Ethyl-6-((4-(1-methyl-4-(pyridin-4-yl)-1H-pyrazol-3-yl)phenyl)ethynyl)pyridine], the IC50 was ≤ 10 nM.
Under `Cn1cc(-c2ccncc2)c(-c2ccc(C#Cc3cccc(C4CC4)n3)cc2)n1` [Example 5, 2-cyclopropyl-6-((4-(1-methyl-4-(pyridin-4-yl)-1H-pyrazol-3-yl)phenyl)ethynyl)pyridine] stands 10 to 100 nM; under `Cc1ccc(C#Cc2ccc(-c3nn(C)cc3-c3ccncc3)cc2)nc1` [Example 6], ≤ 10 nM.
With `Cn1cc(-c2ccncc2)c(-c2ccc(C#Cc3ccc(C4CC4)cn3)cc2)n1` [Example 7, 5-cyclopropyl-2-((4-(1-methyl-4-(pyridin-4-yl)-1H-pyrazol-3-yl)phenyl)ethynyl)pyridine], the IC50 was ≤ 10 nM.
`Cn1cc(-c2ccncc2)c(-c2ccc(C#Cc3cccc(C(F)(F)F)n3)cc2)n1` [Example 8, 2-((4-(1-methyl-4-(pyridin-4-yl)-1H-pyrazol-3-yl)phenyl)ethynyl)-6-(trifluoromethyl)pyridine] showed an IC50 of 100 to 1000 nM.
Under `Cn1cc(-c2ccncc2)c(-c2ccc(C#Cc3ccc(C(F)(F)F)cn3)cc2)n1` [Example 9, 2-((4-(1-methyl-4-(pyridin-4-yl)-1H-pyrazol-3-yl)phenyl)ethynyl)-5-(trifluoromethyl)pyridine] stands 100 to 1000 nM.
`COc1cccc(C#Cc2ccc(-c3nn(C)cc3-c3ccncc3)cc2)n1` [Example 10, 2-methoxy-6-((4-(1-methyl-4-(pyridin-4-yl)-1H-pyrazol-3-yl)phenyl)ethynyl)pyridine]: the half-maximal inhibitory concentration (IC50) was ≤ 10 nM.
In the case of `C(#Cc1ccc2ccccc2n1)c1ccc(-c2n[nH]cc2-c2ccncc2)cc1` [Example 11, 2-((4-(4-(pyridin-4-yl)-1H-pyrazol-3-yl)phenyl)ethynyl)quinoline] it was ≤ 10 nM.
Consider `C(#Cc1ccc2ccccc2n1)c1ccc(-c2nn(C3CC3)cc2-c2ccncc2)cc1` [Example 12, 2-((4-(1-cyclopropyl-4-(pyridin-4-yl)-1H-pyrazol-3-yl)phenyl)ethynyl)quinoline], for which the IC50 was ≤ 10 nM.
Under `OCCn1cc(-c2ccncc2)c(-c2ccc(C#Cc3ccc4ccccc4n3)cc2)n1` [Example 13, 2-(4-(pyridin-4-yl)-3-(4-(quinolin-2-ylethynyl)phenyl)-1H-pyrazol-1-yl)ethanol] stands ≤ 10 nM; under `CNCCn1cc(-c2ccncc2)c(-c2ccc(C#Cc3ccc4ccccc4n3)cc2)n1` [Example 14, N-methyl-2-(4-(pyridin-4-yl)-3-(4-(quinolin-2-ylethynyl)phenyl)-1H-pyrazol-1-yl)ethanamine], ≤ 10 nM.
Under `CCn1cc(-c2ccncc2)c(-c2ccc(C#Cc3ccc4ccccc4n3)cc2)n1` [Example 15, 2-((4-(1-ethyl-4-(pyridin-4-yl)-1H-pyrazol-3-yl)phenyl)ethynyl)quinoline] stands ≤ 10 nM.
Under `COCCn1cc(-c2ccncc2)c(-c2ccc(C#Cc3ccc4ccccc4n3)cc2)n1` [Example 16, 2-((4-(1-(2-methoxyethyl)-4-(pyridin-4-yl)-1H-pyrazol-3-yl)phenyl)ethynyl)quinoline] stands ≤ 10 nM.
In the case of `CN(C)CCn1cc(-c2ccncc2)c(-c2ccc(C#Cc3ccc4ccccc4n3)cc2)n1` [Example 17, N,N-dimethyl-2-(4-(pyridine-4-yl)-3-(4-(quinolin-2-ylethynyl)phenyl)-1H-pyrazol-1-yl)ethanamine], the half-inhibitory concentration (IC50) was ≤ 10 nM.
In the case of `FC(F)(F)Cn1cc(-c2ccncc2)c(-c2ccc(C#Cc3ccc4ccccc4n3)cc2)n1` [Example 18] it was ≤ 10 nM; in that of `FCCn1cc(-c2ccncc2)c(-c2ccc(C#Cc3ccc4ccccc4n3)cc2)n1` [Example 19, 2-((4-(1-(2-fluoroethyl)-4-(pyridin-4-yl)-1H-pyrazol-3-yl)phenyl)ethynyl)quinoline], ≤ 10 nM.
With `C(#Cc1ccc2ccccc2n1)c1ccc(-c2ncncc2-c2ccncc2)cc1` [Example 20, 2-((4-(5-(pyridin-4-yl)pyrimidin-4-yl)phenyl)ethynyl)quinoline], the IC50 was in the range of 10 to 100 nM.
In the case of `C(#Cc1ccc2ccccc2n1)c1ccc(-n2ncnc2-c2ccncc2)cc1` [Example 21, 2-((4-(5-(pyridin-4-yl)-1H-1,2,4-triazol-1-yl)phenyl)ethynyl)quinoline] it was 10 to 100 nM; in that of `C(#Cc1ccc2ccccc2n1)c1ccc(-n2nccc2-c2ccncc2)cc1` [Example 22, 2-((4-(5-(pyridin-4-yl)-1H-pyrazol-1-yl)phenyl)ethynyl)quinoline], ≤ 10 nM; in that of `C(#Cc1ccc2ccccc2n1)c1ccc(-n2cnnc2-c2ccncc2)cc1` [Example 23, 2-((4-(3-(pyridin-4-yl)-4H-1,2,4-triazol-4-yl)phenyl)ethynyl)quinoline], 10 to 100 nM.
With `Cn1cc(-c2ccncc2)c(-c2ccc(C#Cc3ccc4ccccc4n3)nc2)n1` [Example 24, 2-(5-(1-methyl-4-pyridin-4-yl-1H-pyrazol-3-yl)pyridin-2-ylethynyl)quinoline], the IC50 was ≤ 10 nM.
Under `Cn1cc(-c2ccncc2)c(-c2ccc(C#Cc3ccc4ccccc4n3)cc2F)n1` [Example 25, 2-((3-fluoro-4-(1-methyl-4-(pyridin-4-yl)-1H-pyrazol-3-yl)phenyl)ethynyl)quinoline] stands ≤ 10 nM; under `Cn1cc(-c2ccncn2)c(-c2ccc(C#Cc3ccc4ccccc4n3)cc2)n1` [Example 26], 10 to 100 nM.
Under `Cn1cc(-c2ccncc2)c(-c2ccc(C#Cc3ccc4ccccc4n3)cn2)n1` [Example 27, 2-((6-(1-methyl-4-(pyridin-4-yl)-1H-pyrazol-3-yl)pyridin-3-yl)ethynyl)quinoline] stands ≤ 10 nM; under `C(#Cc1ccc2ccccc2n1)c1ccc(-c2ccnn2-c2ccncc2)cc1` [Example 28, 2-((4-(1-(pyridin-4-yl)-1H-pyrazol-5-yl)phenyl)ethynyl)quinoline], ≤ 10 nM.
Regarding `CCn1cc(-c2ccncc2)c(-c2ccc(C#Cc3ccc4ccccc4n3)nc2)n1` [Example 31, 2-((5-(1-ethyl-4-(pyridin-4-yl)-1H-pyrazol-3-yl)pyridin-2-yl)ethynyl)quinoline], the concentration for half-maximal inhibition (IC50) was ≤ 10 nM.
As for `FCCn1cc(-c2ccncc2)c(-c2ccc(C#Cc3ccc4ccccc4n3)nc2)n1` [Example 32, 2-((5-(1-(2-fluoroethyl)-4-(pyridin-4-yl)-1H-pyrazol-3-yl)pyridin-2-yl)ethynyl)quinoline], the IC50 was ≤ 10 nM.
In the case of `COc1ccc(-c2cn(C)nc2-c2ccc(C#Cc3ccc4ccccc4n3)cc2)cc1` [Example 33, 2-((4-(4-(4-methoxyphenyl)-1-methyl-1H-pyrazol-3-yl)phenyl)ethynyl)quinoline] it was 10 to 100 nM.
In the case of `Cn1cc(-c2ccc(O)cc2)c(-c2ccc(C#Cc3ccc4ccccc4n3)cc2)n1` [Example 34, 4-(1-methyl-3-(4-(quinolin-2-ylethynyl)phenyl)-1H-pyrazol-4-yl)phenol] it was 10 to 100 nM; in that of `C(#Cc1ccc2ccccc2n1)c1ccc(-c2c[nH]nc2-c2ccncc2)cc1` [Example 35, 2-((4-(3-(pyridin-4-yl)-1H-pyrazol-4-yl)phenyl)ethynyl)quinoline], ≤ 10 nM; in that of `Cn1cc(-c2ccc(C#Cc3ccc4ccccc4n3)cc2)c(-c2ccncc2)n1` [Example 36, 2-((4-(1-methyl-3-(pyridin-4-yl)-1H-pyrazol-4-yl)phenyl)ethynyl)quinoline], ≤ 10 nM.
`Cn1ncc(-c2ccc(C#Cc3ccc4ccccc4n3)cc2)c1-c1ccncc1` [Example 37, 2-((4-(1-methyl-5-(pyridin-4-yl)-1H-pyrazol-4-yl)phenyl)ethynyl)quinoline] gave an IC50 of 10 to 100 nM.
